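Where inhibition never reached the appropriate level, the endpoint shown equals the highest concentration tested. Otherwise, values were interpolated linearly from a five-concentration, 48-hour dose response in 96-well plates. GI50 = concentration required for 50% inhibition of growth. At the TGI there is no net growth.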
Key:
Assay in all cases: NCI-60 cell line screen, 48 h
[1] = test system: NCI-H23 lung
[2] = test system: OVCAR-5 ovarian
[3] = test system: UACC-257 melanoma
[4] = test system: SF-295 CNS
[5] = test system: A498 renal
[6] = test system: SN12C renal
[7] = test system: HL-60(TB) leukemia
[8] = test system: U251 CNS
[9] = test system: OVCAR-3 ovarian
[10] = test system: SF-268 CNS
[11] = test system: HOP-18 NSCLC
[12] = test system: RPMI-8226 leukemia
[13] = test system: NCI-H522 lung
[14] = test system: M14 melanoma
[15] = test system: SNB-78 CNS
[16] = test system: MALME-3M melanoma
[17] = test system: DLD-1 colon
[18] = test system: SW-620 colon
[19] = test system: A549 NSCLC
[20] = test system: DMS 273 small cell lung
[21] = test system: RXF 393 renal
[22] = test system: SK-MEL-28 melanoma
[23] = test system: IGROV1 ovarian
[24] = test system: HT29 colon
[25] = test system: UO-31 renal
[26] = test system: SR leukemia
[27] = test system: SNB-75 CNS
[28] = test system: M19-MEL melanoma
[29] = test system: OVCAR-8 ovarian
[30] = test system: KM20L2 colon
[31] = test system: SF-539 CNS
[32] = test system: KM12 colon
[33] = test system: MOLT-4 leukemia
[34] = test system: SK-OV-3 ovarian
[35] = test system: NCI-H226 lung
[36] = test system: HCT-116 colon
[37] = test system: UACC-62 melanoma
[38] = test system: LXFL 529 NSCLC
[39] = test system: CCRF-CEM leukemia
[40] = test system: XF 498 CNS
[41] = test system: HOP-92 NSCLC
[42] = test system: RXF-631 renal
[43] = test system: SNB-19 CNS
[44] = test system: SK-MEL-5 melanoma
[45] = test system: K-562 leukemia
[46] = test system: 786-0 renal
[47] = test system: COLO 205 colon
[48] = test system: ACHN renal
[49] = test system: LOX IMVI melanoma
[50] = test system: CAKI-1 renal
[51] = test system: OVCAR-4 ovarian
[52] = test system: TK-10 renal
[53] = test system: DMS 114 small cell lung
[54] = test system: SK-MEL-2 melanoma
[55] = test system: NCI-H460 lung

## CC(=O)[O][Ga]([Cl])[O]C(C)=O
[1]
  GI50: > 100 µM
  TGI: > 100 µM
[2]
  GI50: > 100 µM
  TGI: > 100 µM
[3]
  GI50: > 100 µM
  TGI: > 100 µM
[4]
  GI50: > 100 µM
  TGI: > 100 µM
[5]
  GI50: > 100 µM
  TGI: > 100 µM
[6]
  GI50: > 100 µM
  TGI: > 100 µM
[7]
  GI50: > 100 µM
  TGI: > 100 µM
[8]
  GI50: > 100 µM
  TGI: > 100 µM
[9]
  GI50: > 100 µM
  TGI: > 100 µM
[10]
  GI50: > 100 µM
  TGI: > 100 µM
[11]
  GI50: > 100 µM
  TGI: > 100 µM
[12]
  GI50: > 100 µM
  TGI: > 100 µM
[13]
  GI50: > 100 µM
  TGI: > 100 µM
[14]
  GI50: > 100 µM
  TGI: > 100 µM
[15]
  GI50: > 100 µM
  TGI: > 100 µM
[16]
  GI50: > 100 µM
  TGI: > 100 µM
[17]
  GI50: > 100 µM
  TGI: > 100 µM
[18]
  GI50: > 100 µM
  TGI: > 100 µM
[19]
  GI50: > 100 µM
  TGI: > 100 µM
[20]
  GI50: > 100 µM
  TGI: > 100 µM
[21]
  GI50: > 100 µM
  TGI: > 100 µM
[22]
  GI50: > 100 µM
  TGI: > 100 µM
[23]
  GI50: > 100 µM
  TGI: > 100 µM
[24]
  GI50: > 100 µM
  TGI: > 100 µM
[25]
  GI50: > 100 µM
  TGI: > 100 µM
[26]
  GI50: > 100 µM
  TGI: > 100 µM
[27]
  GI50: > 100 µM
  TGI: > 100 µM
[28]
  GI50: 65.6 µM
  TGI: > 100 µM
[29]
  GI50: > 100 µM
  TGI: > 100 µM
[30]
  GI50: > 100 µM
  TGI: > 100 µM
[31]
  GI50: > 100 µM
  TGI: > 100 µM
[32]
  GI50: > 100 µM
  TGI: > 100 µM
[33]
  GI50: > 100 µM
  TGI: > 100 µM
[34]
  GI50: > 100 µM
  TGI: > 100 µM
[35]
  GI50: > 100 µM
  TGI: > 100 µM
[36]
  GI50: > 100 µM
  TGI: > 100 µM
[37]
  GI50: > 100 µM
  TGI: > 100 µM
[38]
  GI50: > 100 µM
  TGI: > 100 µM
[39]
  GI50: > 100 µM
  TGI: > 100 µM
[40]
  GI50: > 100 µM
  TGI: > 100 µM
[41]
  GI50: > 100 µM
  TGI: > 100 µM
[42]
  GI50: > 100 µM
  TGI: > 100 µM
[43]
  GI50: > 100 µM
  TGI: > 100 µM
[44]
  GI50: > 100 µM
  TGI: > 100 µM
[45]
  GI50: > 100 µM
  TGI: > 100 µM
[46]
  GI50: > 100 µM
  TGI: > 100 µM
[47]
  GI50: > 100 µM
  TGI: > 100 µM
[48]
  GI50: > 100 µM
  TGI: > 100 µM
[49]
  GI50: > 100 µM
  TGI: > 100 µM
[50]
  GI50: > 100 µM
  TGI: > 100 µM
[51]
  GI50: > 100 µM
  TGI: > 100 µM
[52]
  GI50: > 100 µM
  TGI: > 100 µM
[53]
  GI50: > 100 µM
  TGI: > 100 µM
[54]
  GI50: > 100 µM
  TGI: > 100 µM
[55]
  GI50: > 100 µM
  TGI: > 100 µM
